In patent US9663486B2, “Selectively substituted quinoline compounds” (EISAI R&D MANAGEMENT CO., LTD., priority 2013, dated 2017):

Tests used:
Human TLR4 = Human TLR4 (Homo sapiens, UniProt O00206); assay: HEK-293 NFkB-luciferase reporter assay, LPS stimulation; assay type: cell-based; design: stably and individually express human TLR4, TLR7 or TLR9 full-length ORF cDNAs; expressed in transfected cells; host or cells: HEK-293 (ATCC) with ELAM-1 NF-kappaB luciferase reporter; details: ligand LPS
From the text: (§1) HEK-293 cells (ATCC) were engineered to stably express a NF-kappaB transcription factor inducible E-selectin (ELAM-1) luciferase reporter derived from the plasmid pGL3 (Promega) containing base pairs −2241 bp to −254 bp from the promoter of the human E-selectin gene (Accession No. NM_000450). These cells were then subsequently engineered to stably and individually express human TLR4, TLR7 or TLR9 full-length ORF cDNAs. Human TLR4 cDNA (Accession No. NM_138554) was cloned into pcDNA 3.0 expression vector (Invitrogen). TLR4 transfected cells were also engineered to express human MD-2 co-receptor [MD-2 cDNA (Accession No. NM_015364) was cloned into the pEF-BOS vector] and were supplemented with 10 nM soluble CD14 (R&D Systems) in the media to optimize LPS responsiveness. Human TLR9 cDNA (Accession No. NM_017442) was cloned into the pBluescript II KS vector (Agilent). Human TLR7 cDNA (Accession No. NM_016562) was obtained from OriGene. HEK-293 cells stably expressing human TLR8 (Accession No. NM_138636) or mouse TLR7 (Accession No. NM_133211) were purchased from InvivoGen and were then stably transfected with pNiFty2(NF-kappaB)-luciferase reporter plasmid (InvivoGen). Each cell type was plated in Dulbecco's modified Eagle's medium (DMEM) containing 10% fetal bovine serum (FBS) at a density of 2.22×10^5 cells/ml into a 384-well plate and incubated for 2 days at 37° C., 5% CO2. […]

Human TLR9 = target: T1, Human TLR9 (Homo sapiens, UniProt Q9NR96); assay: HEK-293 NFkB-luciferase reporter assay, CpG-ODN stimulation; assay type: cell-based; design: stably and individually express human TLR4, TLR7 or TLR9 full-length ORF cDNAs; expressed in transfected cells; host or cells: HEK-293 (ATCC) with ELAM-1 NF-kappaB luciferase reporter; details: ligand CpG-ODN
T1 sequence (Q9NR96 26-1032): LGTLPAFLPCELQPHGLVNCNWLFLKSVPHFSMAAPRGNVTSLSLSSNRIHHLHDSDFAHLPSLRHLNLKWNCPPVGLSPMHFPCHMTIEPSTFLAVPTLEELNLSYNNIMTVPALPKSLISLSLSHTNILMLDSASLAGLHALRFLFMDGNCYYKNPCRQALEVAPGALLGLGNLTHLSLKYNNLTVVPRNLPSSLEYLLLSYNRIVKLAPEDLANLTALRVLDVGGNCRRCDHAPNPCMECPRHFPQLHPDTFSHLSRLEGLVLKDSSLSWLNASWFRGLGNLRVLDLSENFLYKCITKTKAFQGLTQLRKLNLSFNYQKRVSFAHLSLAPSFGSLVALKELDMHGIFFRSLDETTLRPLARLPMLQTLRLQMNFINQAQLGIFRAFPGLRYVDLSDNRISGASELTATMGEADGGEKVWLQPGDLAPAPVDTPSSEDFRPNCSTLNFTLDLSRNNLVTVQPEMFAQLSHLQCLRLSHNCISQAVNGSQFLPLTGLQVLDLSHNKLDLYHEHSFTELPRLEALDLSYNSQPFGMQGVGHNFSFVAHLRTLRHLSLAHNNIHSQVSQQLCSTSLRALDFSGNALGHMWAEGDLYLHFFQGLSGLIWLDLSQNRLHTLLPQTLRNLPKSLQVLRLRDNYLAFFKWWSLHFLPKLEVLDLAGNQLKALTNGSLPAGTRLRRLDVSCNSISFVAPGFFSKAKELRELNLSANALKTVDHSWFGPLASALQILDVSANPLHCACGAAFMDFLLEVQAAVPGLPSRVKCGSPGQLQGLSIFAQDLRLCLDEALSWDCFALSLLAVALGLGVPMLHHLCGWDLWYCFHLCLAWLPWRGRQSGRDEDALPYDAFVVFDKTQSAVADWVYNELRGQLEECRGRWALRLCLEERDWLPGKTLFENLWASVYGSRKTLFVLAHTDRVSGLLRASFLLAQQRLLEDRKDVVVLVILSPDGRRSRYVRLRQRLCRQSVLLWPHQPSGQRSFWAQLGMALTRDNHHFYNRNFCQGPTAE
From the text: as §1

Chain of Human TLR4 (O00206 24-839): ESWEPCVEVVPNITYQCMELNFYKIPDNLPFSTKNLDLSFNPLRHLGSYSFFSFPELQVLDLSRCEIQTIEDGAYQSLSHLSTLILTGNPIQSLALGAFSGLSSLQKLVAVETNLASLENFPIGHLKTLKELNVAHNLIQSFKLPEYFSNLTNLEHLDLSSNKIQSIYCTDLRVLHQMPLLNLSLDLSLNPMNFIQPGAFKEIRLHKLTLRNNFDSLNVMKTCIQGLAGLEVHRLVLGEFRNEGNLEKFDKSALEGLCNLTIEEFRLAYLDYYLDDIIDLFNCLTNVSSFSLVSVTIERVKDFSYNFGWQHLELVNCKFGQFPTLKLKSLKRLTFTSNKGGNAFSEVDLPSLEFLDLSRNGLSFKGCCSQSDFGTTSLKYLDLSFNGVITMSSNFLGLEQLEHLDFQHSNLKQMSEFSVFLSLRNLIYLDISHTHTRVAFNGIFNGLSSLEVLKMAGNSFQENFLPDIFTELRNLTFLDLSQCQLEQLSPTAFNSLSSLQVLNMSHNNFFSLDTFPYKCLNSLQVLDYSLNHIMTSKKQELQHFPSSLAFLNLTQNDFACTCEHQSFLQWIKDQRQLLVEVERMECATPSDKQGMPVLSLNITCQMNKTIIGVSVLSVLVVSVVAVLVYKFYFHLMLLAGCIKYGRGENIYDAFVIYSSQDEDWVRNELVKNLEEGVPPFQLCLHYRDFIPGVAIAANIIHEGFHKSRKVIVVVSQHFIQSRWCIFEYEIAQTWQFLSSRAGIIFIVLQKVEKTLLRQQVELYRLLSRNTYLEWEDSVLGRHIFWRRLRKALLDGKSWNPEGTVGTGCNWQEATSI
Chain of Human TLR4 (Q9Y6Y9 19-160 partner): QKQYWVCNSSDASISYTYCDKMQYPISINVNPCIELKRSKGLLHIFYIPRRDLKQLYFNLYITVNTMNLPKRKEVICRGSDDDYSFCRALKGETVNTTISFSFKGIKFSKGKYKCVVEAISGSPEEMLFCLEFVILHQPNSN

C[C@H]1C[C@@H](N)CN(c2ccc(C#N)c3ncccc23)C1 [ER-888840, 5-((3R,5S)-3-amino-5-methylpiperidin-1-yl)quinoline-8-carbonitrile]
IC50 (Human TLR4): > 10 µM
IC50 (Human TLR9): 8.77 µM
